# Literature values in patent publication US20180250285A1 (Teva Pharmaceutical Industries Ltd., priority 2012, published 2018).
# Tests used:
# [1] = tested on: Huntington's disease patients
# [2] = in vivo
oral bioavailability [2],SMILES,"tertiary endpoint UHDRS-TMS (changes in motor function) and individual items within the mMS (gait, dysarthria) ([1]; 45 mg daily or 45 mg twice daily for 6 months)","primary endpoint: effect on a specific subset of motor symptoms defined in the mMS ([1]; at 26 weeks, 45 mg daily or 45 mg twice daily)","symptomatic relief incl. improved hand movements, gait and balance (patients with HD)"
,"CCCN1CCC(c2cccc(S(C)(=O)=O)c2)CC1 [pridopidine, 4-[3-(methylsulfonyl)phenyl]-1-propyl-piperidine]",statistically significant effect of treatment,not met,significant symptomatic relief
high,CCN(C(=O)c1c(O)c2c(Cl)cccc2n(C)c1=O)c1ccccc1 [Laquinimod],,,
